The results in this text go back to patent US20100104521A1, “COSMETIC AND/OR PHARMACEUTICAL COMPOSITION COMPRISING AS AN ACTIVE PRINCIPLE AT LEAST ONE PEPTIDE AND USE OF THIS PEPTIDE” (SOCIETE D'EXTRACTION DES PRINCIPES ACTIFS SA (VINCIENCE), priority 2006, published 2010).

This assay concerns melanocytes of human skin biopsies. Kind of assay: Ex vivo study of the effect of the peptide on the synthesis of melanin (human skin biopsies, Fontana-Masson staining). It is filed as cell-based. The note with it: human skin biopsies 6 mm in ex vivo culture, two applications daily, peptide at 1% starting with a 50-ppm solution, 48 hours. The method, then:
The aim of this ex vivo study is to highlight the increase in melanization produced by the peptides according to the invention.
Protocol: Biopsies of human skin 6 mm in diameter are held in an ex vivo culture in the presence of a specific medium (1 g/L DMEM, Ham's F-12, SVF, and antibiotics) on inserts deposited on 6-well plates. […] The duration of the treatment is 48 hours. The biopsies are subsequently fixed in 9% formaldehyde and NaCl (150 mM) for 10 hours and then enclosed in paraffin. Thin-sections of the skin 3 μm thick are then made, and the melanin is specifically stained by the Fontana-Masson technique. […] Conclusions: The peptide of sequence of SEQ ID No. 4 induces a strong increase in the synthesis of melanin by the melanocytes and stimulates the entire process of melanin distribution in the epidermis.

Take Trp-Lys-Leu-Asp (WKLD) [SEQ ID No. 4]: under “Fontana-Masson staining”, the “location / distribution of melanin in the epidermis” value is “located in the basal layer but is also transported into the supra-basal layers”. Where the note is “versus biopsies without application”, the “intensity of melanin coloration of skin thin-sections (Fontana-Masson technique)” value is recorded as “coloration of clearly increased intensity”.
